Experimental data reported in patent publication US9657035B1, “Method of treating cancer and gold(III) complexes as anti-cancer agents” (KING FAHD UNIVERSITY OF PETROLEUM AND MINERALS, priority 2015, dated 2017).

Assays:
[1] = tested on: cisplatin-resistant clone A2780cis; assay: Cell proliferation MTT assay, 72 h; format: cell-based, human; details: for IC50: A2780cis cells, 72 h, MTT, mean±SEM; for Fold resistance A2780cis/A2780 ratio: ratio of IC50 A2780cis to A2780
Protocol: (§1) Complexes 1 and 2 were dissolved (10 mM) in DMSO and stored at -80° C. at volumes of 500 μL or aliquots with volumes of 10 μL were taken and stored at -20° C. (used once without refreezing). The compounds were then diluted in RPMI medium immediately before use. Cisplatin was purchased from Mayne Pharma. Culture medium with the same amount of drug-free DMSO was used as a negative control. The classical Hodgkin lymphoma L-540 cell line was obtained from the German Collection of Microorganisms and Cell Cultures (Braunschweig, Germany). Human ovarian epithelial carcinoma-derived cancer cells A2780 and its cisplatin-resistant clone A2780cis were from Sigma, Inc. (St. Louis, Mo., USA). The parent cisplatin-resistant subclone A2780cis was maintained by weekly treatment with 1 μM cisplatin ([…]. Celegato, C. Borghese, M. Mongiat, A. Colombatti, and D. Aldinucci, Clin. Cancer Res. vol. 20, pp. 5496-5506, 2014, incorporated herein by reference in its entirety). Cells were cultured at 37° C. in 5% CO2 in RPMI medium supplemented with 10% heat-inactivated FBS, 0.1% (w/v) L-glutamine and antibiotics (0.2 mg/mL penicillin and streptomycin). For the cell proliferation assay, 4.0×10^3 A2780 and A2780cis cells were seeded in 96-well flat-bottomed microplates in RPMI medium (100 μL) and incubated at 37° C. in a 5% CO2 atmosphere for 24 h (to allow cell adhesion) before drug testing. The medium was then removed and replaced with fresh medium containing the compounds to be tested and cisplatin at increasing concentrations (from 1 to 100 μM) at 37° C. for 72 h. Each treatment was performed in triplicate. Cell proliferation was assayed using the MTT assay. L-540 cells (2.0×10^5/ml) were seeded in 48-well plates and treated with increasing concentrations of complex 1 and complex 2. After 72 hours, the number of viable cells was evaluated by a trypan blue dye exclusion. The IC50 values (i.e., the half maximal inhibitory concentration, representing the concentration of a substance required for 50% inhibition in vitro) were calculated using CalcuSyn software (Biosoft, Ferguson, Mo., USA) (T. C. Chou, and P. Talalay, Adv. Enzyme Regul. vol. 22, pp. 27-55, 1984, incorporated herein by reference in its entirety). The results were presented as the mean±SEM of three replicate wells from three independent experiments. The cells were imaged under an inverted microscope (Eclipse TS/100, Nikon) with a photomicrographic system (DS Camera Control Unit DS-L2). Phase contrast micrographs were taken at a magnification of 4× (for L-540 cells) and 10× (for A2780 and A2780cis cells).

[2] = tested on: ovarian epithelial carcinoma-derived cancer cells A2780; assay: Cell proliferation MTT assay, 72 h; format: cell-based, human; details: mean±SEM
Protocol: as §1

[3] = Kinetics of substitution reaction of gold(III) complexes with glutathione (UV-vis, 297 nm); format: physicochemical; details: for second-order rate constant k for the reaction with GSH: at 298K, 20 mM NaCl, 297 nm; for ΔH^† activation enthalpy, reaction with GSH / ΔS^† activation entropy, reaction with GSH: from Eyring plots
Protocol: All kinetics measurements were made using a UV-vis spectrophotometer (Agilent Technologies, Cary 100 UV-Vis). Scanning kinetic mode was used to investigate the change in the electronic spectra for gold(III) complexes upon interaction with GSH to determine the effective wavelength for the reactions. Then, the kinetic mode was used to monitor the reaction progress at the selected wavelength. A solution containing 0.2 mM gold(III) complexes was prepared in water, and 40 mM sodium chloride was added to improve the stability of the mononuclear-gold(III) complexes by preventing hydrolysis of the chlorides (A. Djeković, B. Petrović, Z. D. Bugarcić, R. Puchta, and R. van Eldik, Dalton Trans., vol. 41, no. 13, pp. 3633-41, 2012, incorporated herein by reference in its entirety). A series of GSH solutions was also prepared. Equal volumes of gold(III) complex solution and GSH solution were mixed, and the spectral changes recorded using the scanning kinetic mode in the range from 200 nm to 350 nm. Then, the kinetic mode was used to follow the reaction at three different temperatures. The reaction between the gold(III)-diamine complexes and the GSH ligand to form gold(III)-complexes can be illustrated in following equation: […]
The rate (k) of the described reactions can be calculated from the slope of the linear plot of kobs versus GSH concentration according to eqn (1), where the rate of the reverse reaction (k−1) is obtained from the intercept of the straight line. kobs=k[GSH]+k−1[Cl] Eqn (1)
Using Microsoft Excel, the rate constants and activation parameters were calculated from Eyring plots: […]
The kinetics of the substitution reaction between the synthesized anticancer gold(III) complexes 1 and 2 with tripeptide glutathione were investigated spectrophotometrically by monitoring the spectral changes of the gold(III) complexes in solution with excess of GSH. […] Equal volumes of the gold(III) complexes and GSH were kept until thermal equilibration was achieved and then mixed directly inside a UV cell. The changes in the absorption at a selected wavelength (297 nm) under pseudo-first order conditions as functions of the glutathione concentration and temperature were collected. The […] rate constant (k) was obtained from the linear plot of kobs versus the total GSH concentration (1). NaCl was added in excess to avoid the hydrolysis of mononuclear-gold(III) diamine chloride, but this was not found to be effective for complex 2 (FIG. 2).

[4] = tested on: classical Hodgkin lymphoma L-540 cell line; assay: In vitro cytotoxicity, trypan blue dye exclusion, 72 h; format: cell-based, human; details: L-540 cells; for IC50: trypan blue assay
Protocol: Complexes 1 and 2 were dissolved (10 mM) in DMSO and stored at −80° C. at volumes of 500 μL or aliquots with volumes of 10 μL were taken and stored at −20° C. (used once without refreezing). The compounds were then diluted in RPMI medium immediately before use. Cisplatin was purchased from Mayne Pharma. Culture medium with the same amount of drug-free DMSO was used as a negative control.
The classical Hodgkin lymphoma L-540 cell line was obtained from the German Collection of Microorganisms and Cell Cultures (Braunschweig, Germany). Human ovarian epithelial carcinoma-derived cancer cells A2780 and its cisplatin-resistant clone A2780cis were from Sigma, Inc. (St. Louis, Mo., USA). The parent cisplatin-resistant subclone A2780cis was maintained by weekly treatment with 1 μM cisplatin (N. Casagrande, M. Celegato, C. Borghese, M. Mongiat, A. Colombatti, and D. Aldinucci, Clin. Cancer Res. vol. 20, pp. 5496-5506, 2014, incorporated herein by reference in its entirety). Cells were cultured at 37° C. in 5% CO2 in RPMI medium supplemented with 10% heat-inactivated FBS, 0.1% (w/v) L-glutamine and antibiotics (0.2 mg/mL penicillin and streptomycin).
For the cell proliferation assay, 4.0×10^3 A2780 and A2780cis cells were seeded in 96-well flat-bottomed microplates in RPMI medium (100 μL) and incubated at 37° C. in a 5% CO2 atmosphere for 24 h (to allow cell adhesion) before drug testing. The medium was then removed and replaced with fresh medium containing the compounds to be tested and cisplatin at increasing concentrations (from 1 to 100 μM) at 37° C. for 72 h. Each treatment was performed in triplicate. Cell proliferation was assayed using the MTT assay. L-540 cells (2.0×10^5/ml) were seeded in 48-well plates and treated with increasing concentrations of complex 1 and complex 2. After 72 hours, the number of viable cells was evaluated by a trypan blue dye exclusion. […]

SMILES	IC50 [1]	Fold resistance A2780cis/A2780 ratio [1]	Fold resistance A2780cis/A2780 ratio ([1]; listed as cisplatin)	IC50 [2]	Ea activation energy, reaction with GSH [3]	second-order rate constant k for the reaction with GSH [3]	ΔH^† activation enthalpy, reaction with GSH [3]	ΔS^† activation entropy, reaction with GSH [3]	IC50 [4]	fold more active than complex 1 (L-540 IC50) [4]	IC50 ([2]; listed as 2)	IC50 ([2]; listed as (2))
N.N.[Cl][Pt][Cl] [Cisplatin, reference compound]	17.6 µM	9.77	9.7	1.8 µM	–	–	–	–	–	–	–	–
NC1CCCCC1N.[Au+3].[Cl-].[Cl-].[Cl-] [Complex 1, 1(R),2(R)-[(DACH)AuCl2]Cl]	61.3 µM	3.90	–	15.7 µM	7.65 kcal/mol	1.14 M⁻¹ s⁻¹	7.17 kcal/mol	−137 JK^−1mol^−1	70.4 µM	–	–	–
NC1CCCCC1N.NC1CCCCC1N.[Au+3].[Cl-].[Cl-].[Cl-] [Complex 2, 1(R),2(R)-[(DACH)2Au]Cl3]	31.1 µM	4.45	–	–	4.54 kcal/mol	0.31 M⁻¹ s⁻¹	4.06 kcal/mol	−189 JK^−1mol^−1	9.8 µM	7 fold	6.98 µM	6.9 ± 0.6 µM
